Test results taken from patent US12324827B2, “Combination therapy for the treatment of migraines” (The University of Chicago, priority 2019, dated 2025).
“And” between values parts separate entries of the source, which are not always exact repeats. Equal values may be shown once. “Also recorded” adds a separate entry of the source.

Key:
[1] = system: trigeminal ganglion malondialdehyde; assay: Malondialdehyde (oxidative stress) immunostaining of trigeminal ganglion after recurrent spreading depression; assay type: in vivo, rat
Method: N2B delivery of 150 μg human recombinant IGF-1 (#191-G1; R&D Systems, Minneapolis, MN) in 50 μL sodium succinate buffer followed the previously described approach (21,51) that was based on the techniques of Liu and coworkers (24) in the recording laboratory under isoflurane anesthesia with spontaneous ventilation.
Induction of recurrent SD followed previously published aseptic techniques from the inventors' laboratory (8, 13, 21, 25, 26, 51) (FIG. 4). […]
Imaging was performed using a Photometrics self-calibrating digital camera QuantEM-512SC camera (500×500 pixels; Photometrics, Tucson, AZ) run on MetaMorph software (v. 7.0.4; Molecular Devices, Sunnyvale, CA) under blinded conditions (as previously described (13, 20-22). Image exposure, camera gain and thresholding were uniformly set (i.e., equivalently for experimental and sham groups for each imaging metric (i.e., MDA, CGRP and c-fos). Resultant images were digitally stored as TIFF files for subsequent analyses that continued under blinded conditions where image integrated fluorescence intensity was registered using MetaMorph software for MDA and CGRP.
Images of MDA and CGRP were analyzed while blinded and later decoded to ratios of experimental/sham image integrated optical intensity, a sensitive metric that not only accounts for the area but also the pixel intensity of related image fluorescence. […]

[2] = system: spreading depression; conditions: cited from earlier work
[3] = system: mechanical hyperalgesia; assay: Acid saline-induced fibromyalgia model, hind paw withdrawal threshold by electronic von Frey; assay type: in vivo, female Wistar rats; conditions: nasal IGF-1 150 μg/dose on PD-2, PD-5, PD-8; experiments FM-7 and FM-8, n=3/group
Description: However, due to its simplicity and reproducibility, a widely-used, non-inflammatory rodent model which mimics chronic, widespread muscle pain-like behavior was utilized. This fibromyalgia model consists of two unilateral injections of acid saline into the gastrocnemius muscle which produce bilateral, long-lasting mechanical hyperalgesia for up to 4 weeks without motor deficits or tissue damage observed histologically (Sluka et al., 2001), Hind paw withdrawal thresholds obtained using an electronic von Frey device were used as a measure of “inferred pain”.
Experimental Procedures here are described utilizing intranasal IGF-1 for treatment of pain related to the acid saline-induced fibromyalgia model. […]
Testing consists of placing rats in an acrylic cage module [23 cm×24 cm×14.6 cm (W×L×H)] which rests upon an elevated wire mesh grid floor (FIG. 21). […] The force at which this response occurs is recorded automatically by the electronic device and is designated as the paw withdrawal threshold (FIG. 22). […]
Two investigators were used for all experiments. […] The second investigator recorded paw withdrawal threshold (PWT) force levels, procedures modeled after the experimental strategy reported by Martinov et al., 2013. […]
Specifically, baseline (BA) measurements of paw withdrawal threshold (PWT) were determined for six animals/experiment prior to experimental treatment. […]

[4] = system: rat hippocampal brain slice cultures; conditions: cited from earlier work

In the case of “IGF-1: human recombinant IGF-1 (#191-G1; R&D Systems), 150 μg in 50 μL sodium succinate buffer, delivered nose-to-brain”, the “reduction of malondialdehyde levels in the trigeminal ganglion after recurrent SD” value ([1]; N2B IGF-1 150 μg a day before 90 minutes of recurrent SD, p<0.001) is given as 82% and 83%, the “natural logarithm ratio (IGF-1/sham) of MDA immunostaining after recurrent SD” value ([1]; n=5/group) is given as −1.37±0.40 and the “protection against SD over sham treatment” value ([2]; SD from KCl, pretreatment) is given as roughly 27 fold. For the same substance, the “spreading depression in whole animals” value ([2]; nasal delivery) was “significantly inhibited spreading depression in whole animals”, the “hind paw withdrawal threshold / pain-related behavior” value [3] was “significant and continued reduction in pain-related behavior; also recorded: protection against acid-induced hind paw hyperalgesia” and the “oxidative stress from menadione exposure” value ([4]; brain slice cultures in vitro) was “significantly reduced”. For the same substance, the “spreading depression in slice cultures” value ([4]; rat hippocampal brain slice cultures) was “significantly inhibited spreading depression”.
